Assay results taken from ChEMBL document CHEMBL1828536, “The impact of fatty acids on the antibacterial properties of N-thiolated β-lactams” (2011).
≈ marks a conversion by molar mass, not a printed value.

Tests used:
Type in all cases: functional
[1] = test system: Staphylococcus aureus; assay: Antimicrobial activity against methicillin-resistant Staphylococcus aureus using tryptone soy broth in presence of tween-80
[2] = test system: Staphylococcus aureus; assay: Antimicrobial activity against methicillin-resistant Staphylococcus aureus using tryptone soy broth
[3] = test system: Staphylococcus aureus; assay: Antimicrobial activity against methicillin-resistant Staphylococcus aureus using tryptone soy broth in presence of oleic acid
[4] = test system: Staphylococcus aureus; assay: Antimicrobial activity against methicillin-resistant Staphylococcus aureus using tryptone soy broth in presence of bovine serum albumin

Row | SMILES | MIC [1] [µg/mL] | MIC [2] [µg/mL] | MIC [3] [µg/mL] | MIC [4] [µg/mL]
1 | CCC(C)SN1C(=O)[C@H](OC)[C@@H]1c1ccccc1Cl (some centres not stated) | 3000 | 1000 (≈ 3340 µM) | 2000 | –
2 | Oc1cc(Cl)ccc1Oc1ccc(Cl)cc1Cl [TRICLOSAN] | > 10000 | 20 (≈ 69.1 µM) | 2000 | 20
